From patent US5840684A, “Glycopeptide antibiotic derivatives” (Eli Lilly and Company, priority 1995, dated 1998)
Values after ≈ are worked out from the molar mass of the structure shown.

Experiments:
[1] = tested on: vancomycin-susceptible enterococci; experiment: broth micro-dilution, mean geometric MIC; format: cell-based, Enterococcus faecium and Enterococcus faecalis; settings: enterococci, 24-hour incubation
[2] = tested on: vancomycin-resistant enterococci; experiment: broth micro-dilution, mean geometric MIC; format: cell-based, Enterococcus faecium and Enterococcus faecalis; settings: enterococci, 24-hour incubation
[3] = tested on: Staphylococcus aureus SA1199; experiment: broth micro-dilution MIC; format: cell-based
Description: (§1) The MIC's were determined using a standard broth micro-dilution assay.

[4] = tested on: Staphylococcus aureus 447; experiment: broth micro-dilution MIC; format: cell-based
Description: as §1

[5] = tested on: Staphylococcus aureus 446; experiment: broth micro-dilution MIC; format: cell-based
Description: as §1

[6] = tested on: Staphylococcus aureus X778; experiment: broth micro-dilution MIC; format: cell-based
Description: as §1

[7] = tested on: Staphylococcus aureus 491; experiment: broth micro-dilution MIC; format: cell-based
Description: as §1

[8] = tested on: Staphylococcus aureus 489; experiment: broth micro-dilution MIC; format: cell-based
Description: as §1

[9] = tested on: Entercoccus faecium 180-1; experiment: broth micro-dilution MIC; format: cell-based
Description: as §1

[10] = tested on: Streptococcus pyogenes C203; experiment: broth micro-dilution MIC; format: cell-based
Description: as §1

[11] = tested on: Staphylococcus aureus X400; experiment: broth micro-dilution MIC; format: cell-based
Description: as §1

[12] = tested on: Staphylococcus aureus SA1199A; experiment: broth micro-dilution MIC; format: cell-based
Description: as §1

Entercoccus faecium 276 = experiment: broth micro-dilution MIC; format: cell-based
Description: as §1

[13] = tested on: Staphylococcus aureus S13E; format: cell-based
Description: as §1

[14] = tested on: Staphylococcus aureus SA1199B; format: cell-based
Description: as §1

Entercoccus faecium 180 = experiment: broth micro-dilution MIC; format: cell-based; settings: Entercoccus faecium 180
Description: (§2) The formula I compounds have in vitro and in vivo activity against Gram-positive pathogenic bacteria. The MIC's were determined using a standard broth micro-dilution assay.

Entercoccus faecium 2041 = experiment: broth micro-dilution MIC; format: cell-based; settings: Entercoccus faecium 2041
Description: as §2

[15] = tested on: Haemophilus influenzae RD; experiment: broth micro-dilution MIC; format: cell-based; settings: Haemophilus influenzae RD
Description: as §2

[16] = tested on: Staphylococcus epidermidis 270; experiment: broth micro-dilution MIC; format: cell-based
Description: as §2

[17] = tested on: Streptococcus pneumoniae P1; experiment: broth micro-dilution MIC; format: cell-based
Description: as §2

[18] = tested on: Staphylococcus haemolyticus 105; experiment: broth micro-dilution MIC; format: cell-based
Description: as §2

Escherichia coli EC14 = experiment: broth micro-dilution MIC; format: cell-based
Description: as §2

[19] = tested on: Staphylococcus haemolyticus 415; experiment: broth micro-dilution MIC; format: cell-based
Description: as §2

[20] = tested on: Enterococcus gallinarum 245; experiment: broth micro-dilution MIC; format: cell-based; settings: Enterococcus gallinarum 245
Description: as §2

SMILES | mean geometric MIC, Vancomycin Sensitive Strains [1] [µg/mL] | mean geometric MIC, Vancomycin Resistant Strains [2] [µg/mL] | MIC [3] [µg/mL] | MIC [4] [µg/mL] | MIC [5] [µg/mL] | MIC [6] [µg/mL] | MIC [7] [µg/mL] | MIC [8] [µg/mL] | MIC [9] [µg/mL] | MIC [10] [µg/mL] | MIC [11] [µg/mL] | MIC [12] [µg/mL] | MIC (Entercoccus faecium 276) [µg/mL] | MIC [13] [µg/mL] | MIC [14] [µg/mL] | MIC (Entercoccus faecium 180) [µg/mL] | MIC (Entercoccus faecium 2041) [µg/mL] | MIC [15] [µg/mL] | MIC [16] [µg/mL] | MIC [17] [µg/mL] | also measured
CC(C)CC(C(=O)NC1C(=O)NC(CC(N)=O)C(=O)NC2C(=O)NC3C(=O)NC(C(=O)NC(C(=O)O)c4cc(O)cc(O)c4-c4cc3ccc4O)C(OC3CC(C)(N)C(O)C(C)O3)c3ccc(c(Cl)c3)Oc3cc2cc(c3OC2OC(CO)C(O)C(O)C2OC2CC(C)(N)C(O)C(C)O2)Oc2ccc(cc2Cl)C1O)N(C)Cc1ccc(-c2ccccc2)cc1 (stereo not drawn) [Compound 250] | 0.44 | 16 | ≤ 0.06 | 0.125 (≈ 0.0711 µM) | 0.25 (≈ 0.142 µM) | ≤ 0.06 | ≤ 0.06 | ≤ 0.06 | ≤ 0.06 | ≤ 0.06 | ≤ 0.06 | ≤ 0.06 | ≤ 0.06 | ≤ 0.06 | ≤ 0.06 | 2 (≈ 1.14 µM) | ≤ 0.06 | > 64 | 0.25 (≈ 0.142 µM) | ≤ 0.06 | MIC [18]: 2 µg/mL (≈ 1.14 µM); MIC (Escherichia coli EC14): > 64 µg/mL; MIC [19]: 4 µg/mL (≈ 2.27 µM); MIC [20]: 4 µg/mL (≈ 2.27 µM)
COc1cc(CNC2(C)CC(OC3C(Oc4c5cc6cc4Oc4ccc(cc4Cl)C(OC4CC(C)(N)C(O)C(C)O4)C4NC(=O)C(NC(=O)C6NC(=O)C(CC(N)=O)NC(=O)C(NC(=O)C(CC(C)C)N(C)Cc6ccc(OCc7ccccc7)c(OC)c6)C(O)c6ccc(c(Cl)c6)O5)c5ccc(O)c(c5)-c5c(O)cc(O)cc5C(C(=O)O)NC4=O)OC(CO)C(O)C3O)OC(C)C2O)ccc1OCc1ccccc1 (stereo not drawn) [Compound 268] | 0.87 | 6.7 | 4 (≈ 1.96 µM) | 4 (≈ 1.96 µM) | 2 (≈ 0.978 µM) | 2 (≈ 0.978 µM) | 1 (≈ 0.489 µM) | 1 (≈ 0.489 µM) | 0.25 (≈ 0.122 µM) | ≤ 0.06 | 2 (≈ 0.978 µM) | 0.5 (≈ 0.244 µM) | 2 (≈ 0.978 µM) | 4 (≈ 1.96 µM) | 2 (≈ 0.978 µM) | 0.5 (≈ 0.244 µM) | 1 (≈ 0.489 µM) | > 64 | 1 (≈ 0.489 µM) | ≤ 0.06 | MIC [18]: 8 µg/mL (≈ 3.91 µM); MIC (Escherichia coli EC14): > 64 µg/mL; MIC [19]: 4 µg/mL (≈ 1.96 µM); MIC [20]: 4 µg/mL (≈ 1.96 µM)
CNC(CC(C)C)C(=O)NC1C(=O)NC(CC(N)=O)C(=O)NC2C(=O)NC3C(=O)NC(C(=O)NC(C(=O)O)c4cc(O)cc(O)c4-c4cc3ccc4O)C(OC3CC(C)(NCc4ccc(-c5ccccc5)cc4)C(O)C(C)O3)c3ccc(c(Cl)c3)Oc3cc2cc(c3OC2OC(CO)C(O)C(O)C2OC2CC(C)(NCc3ccc(-c4ccccc4)cc3)C(O)C(C)O2)Oc2ccc(cc2Cl)C1O (stereo not drawn) [Compound 248] | 0.66 | 2 | 1 (≈ 0.52 µM) | 4 (≈ 2.08 µM) | 2 (≈ 1.04 µM) | 4 (≈ 2.08 µM) | 1 (≈ 0.52 µM) | 2 (≈ 1.04 µM) | ≤ 0.06 | ≤ 0.06 | 4 (≈ 2.08 µM) | 1 (≈ 0.52 µM) | 2 (≈ 1.04 µM) | 0.5 (≈ 0.26 µM) | 8 (≈ 4.16 µM) | 0.25 (≈ 0.13 µM) | 1 (≈ 0.52 µM) | > 64 | 0.5 (≈ 0.26 µM) | ≤ 0.06 | MIC [18]: 2 µg/mL (≈ 1.04 µM); MIC (Escherichia coli EC14): > 64 µg/mL; MIC [19]: 4 µg/mL (≈ 2.08 µM); MIC [20]: 4 µg/mL (≈ 2.08 µM)
CC(C)CC(C(=O)NC1C(=O)NC(CC(N)=O)C(=O)NC2C(=O)NC3C(=O)NC(C(=O)NC(C(=O)O)c4cc(O)cc(O)c4-c4cc3ccc4O)C(OC3CC(C)(N)C(O)C(C)O3)c3ccc(c(Cl)c3)Oc3cc2cc(c3OC2OC(CO)C(O)C(O)C2OC2CC(C)(NCc3cccnc3)C(O)C(C)O2)Oc2ccc(cc2Cl)C1O)N(C)Cc1cccnc1 (stereo not drawn) [Compound 280] | 7 | > 128 | 2 (≈ 1.13 µM) | 8 (≈ 4.51 µM) | 2 (≈ 1.13 µM) | 0.5 (≈ 0.282 µM) | 2 (≈ 1.13 µM) | 1 (≈ 0.563 µM) | 0.25 (≈ 0.141 µM) | 0.125 (≈ 0.0704 µM) | 1 (≈ 0.563 µM) | 0.5 (≈ 0.282 µM) | 0.5 (≈ 0.282 µM) | 2 (≈ 1.13 µM) | 0.5 (≈ 0.282 µM) | 32 (≈ 18 µM) | 1 (≈ 0.563 µM) | > 64 | 8 (≈ 4.51 µM) | 0.125 (≈ 0.0704 µM) | MIC [18]: > 64 µg/mL; MIC (Escherichia coli EC14): > 64 µg/mL; MIC [19]: 32 µg/mL (≈ 18 µM); MIC [20]: 32 µg/mL (≈ 18 µM)
CC(C)CC(C(=O)NC1C(=O)NC(CC(N)=O)C(=O)NC2C(=O)NC3C(=O)NC(C(=O)NC(C(=O)O)c4cc(O)cc(O)c4-c4cc3ccc4O)C(OC3CC(C)(N)C(O)C(C)O3)c3ccc(c(Cl)c3)Oc3cc2cc(c3OC2OC(CO)C(O)C(O)C2OC2CC(C)(NCc3ccc(-c4ccccc4)cc3)C(O)C(C)O2)Oc2ccc(cc2Cl)C1O)N(C)Cc1ccc(-c2ccccc2)cc1 (stereo not drawn) [Compound 251] | 0.66 | 2 | ≤ 0.06 | 0.125 (≈ 0.0649 µM) | 0.25 (≈ 0.13 µM) | ≤ 0.06 | ≤ 0.06 | ≤ 0.06 | ≤ 0.06 | ≤ 0.06 | ≤ 0.06 | ≤ 0.06 | ≤ 0.06 | ≤ 0.06 | ≤ 0.06 | 2 (≈ 1.04 µM) | ≤ 0.06 | > 64 | 0.25 (≈ 0.13 µM) | ≤ 0.06 | MIC [18]: 2 µg/mL (≈ 1.04 µM); MIC (Escherichia coli EC14): > 64 µg/mL; MIC [19]: 4 µg/mL (≈ 2.08 µM); MIC [20]: 4 µg/mL (≈ 2.08 µM)
CC(C)CC(C(=O)NC1C(=O)NC(CC(N)=O)C(=O)NC2C(=O)NC3C(=O)NC(C(=O)NC(C(=O)O)c4cc(O)cc(O)c4-c4cc3ccc4O)C(OC3CC(C)(N)C(O)C(C)O3)c3ccc(c(Cl)c3)Oc3cc2cc(c3OC2OC(CO)C(O)C(O)C2OC2CC(C)(NCC3CC=CCC3)C(O)C(C)O2)Oc2ccc(cc2Cl)C1O)N(C)CC1CC=CCC1 (stereo not drawn) [Compound 287] | 1.1 | 45 | 0.5 (≈ 0.281 µM) | 4 (≈ 2.25 µM) | 1 (≈ 0.562 µM) | 0.5 (≈ 0.281 µM) | 1 (≈ 0.562 µM) | 0.5 (≈ 0.281 µM) | 0.125 (≈ 0.0702 µM) | ≤ 0.06 | 0.5 (≈ 0.281 µM) | ≤ 0.06 | 0.25 (≈ 0.14 µM) | 1 (≈ 0.562 µM) | 0.25 (≈ 0.14 µM) | 16 (≈ 8.98 µM) | 0.125 (≈ 0.0702 µM) | > 64 | 4 (≈ 2.25 µM) | ≤ 0.06 | MIC [18]: 8 µg/mL (≈ 4.49 µM); MIC (Escherichia coli EC14): > 64 µg/mL; MIC [19]: 16 µg/mL (≈ 8.98 µM); MIC [20]: 0.5 µg/mL (≈ 0.281 µM)
CC(C)CC(C(=O)NC1C(=O)NC(CC(N)=O)C(=O)NC2C(=O)NC3C(=O)NC(C(=O)NC(C(=O)O)c4cc(O)cc(O)c4-c4cc3ccc4O)C(OC3CC(C)(N)C(O)C(C)O3)c3ccc(c(Cl)c3)Oc3cc2cc(c3OC2OC(CO)C(O)C(O)C2OC2CC(C)(N)C(O)C(C)O2)Oc2ccc(cc2Cl)C1O)N(C)Cc1ccc(-c2ccc(Cl)cc2)cc1.O=C(O)C(F)(F)F (stereo not drawn) [Compound 252] | 0.1 | 9.5 | 0.125 | ≤ 0.06 | 0.125 | ≤ 0.06 | ≤ 0.06 | ≤ 0.06 | ≤ 0.06 | ≤ 0.06 | 0.125 | ≤ 0.06 | ≤ 0.06 | 0.125 | ≤ 0.06 | 0.5 | ≤ 0.06 | > 64 | 0.125 | ≤ 0.06 | MIC [18]: 0.5 µg/mL; MIC (Escherichia coli EC14): > 64 µg/mL; MIC [19]: 1 µg/mL; MIC [20]: 1 µg/mL
